From patent US8669054B2, “Marker for gastric cancer and method for detecting gastric cancer” (The Chinese University of Hong Kong, priority 2010, dated 2014)

System: PAX5 gene expression in methylated GC and CRC cell lines
Experiment: Demethylation treatment with 5-Aza; PAX5 expression by semiquantitative RT-PCR
Format: cell-based, human
Settings: 2 μM 5-Aza for 5 days; AGS, MKN28, KatoIII, HCT116, SW620 and SW480
Experimental: Semiquantitative RT-PCR was performed in a total volume of 25 μL reaction containing GeneAmp 1×PCR Buffer II (Applied Biosystems), 2.5 mM MgCl2, 200 μM each of dNTP, 200 nM each of primers, 0.5 U of AmpliTaq Gold DNA polymerase (Applied Biosystems) and 30˜50 ng cDNA. […] The PCR bands were visualized under ultraviolet light and photographed. The expression of the target gene was normalized by the expression of house keeping gene β-actin, which served as an internal control. […] Cells were then treated with 2 μM 5-aza-2′-deoxycytidine (“5-Aza”) (Sigma-Aldrich) for 5 days. The 5-Aza was replenished every day.

Nc1ncn([C@H]2C[C@H](O)[C@@H](CO)O2)c(=O)n1 [5-Aza, 5-aza-2′-deoxycytidine]
PAX5 gene expression after 5-Aza demethylation treatment (RT-PCR): restore expression
